Test results published in US20040176431A1, “Antiproliferative 2-(sulfo-phenyl)-aminothiazole derivatives and pharmaceutical compositions, and methods for their use” (Pfizer, Inc., priority 2003, published 2004).

Molecular target: T1, CDK4/cyclin D3 (Homo sapiens, UniProt P11802)
T1 construct: made in house; host or cells: insect cells (baculovirus co-infection)
Assay: Inhibition of CDK4/Cyclin D retinoblastoma kinase activity
Format: biochemical
Details: for inhibition at 0.1 µM / % Inhib CDK4/D @ 0.1 μM: test compound at 0.1 μM; for inhibition at 0.1 µM: read-out: % Inhib CDK4/D @ 0.1 μM; for inhibition at 1 µM / % Inhib CDK4/D @ 1 μM: test compound at 1 μM (head line shifted: 'mM' printed beside 'Structure'); for inhibition at 1 µM: read-out: % Inhib CDK4/D @ 1 μM; for inhibition at 0.03 µM / % Inhib CDK4/D @ 0.03: test compound at 0.03 (unit cell empty, head line shifted; μM); for inhibition at 0.03 µM: read-out: % Inhib CDK4/D @ 0.03
Experimental: Cyclin-dependent kinase activity was measured by quantifying the enzyme-catalyzed, time-dependent incorporation of radioactive phosphate from [^32P]ATP or [^33P]ATP into a protein substrate. Unless noted otherwise, assays were performed in 96-well plates in a total volume of 50 μL, in the presence of 10 mM HEPES (N-[2-hydroxyethyl]piperazine-N′-[2-ethanesulfonic acid]) (pH 7.4), 10 mM MgCl2, 25 μM adenosine triphosphate (ATP), 1 mg/mL ovalbumin, 5 μg/mL leupeptin, 1 mM dithiothreitol, 10 mM β-glycerophosphate, 0.1 mM sodium vanadate, 1 mM sodium fluoride, 2.5 mM ethylene glycol-bis(β-aminoethyl ether)-N,N,N′N′-tetraacetic acid (EGTA), 2% (v/v) dimethylsulfoxide, and 0.03-0.4 μCi [^32/33P]ATP per reaction. Reactions were initiated with enzyme, incubated at 30° C., and terminated after 20 minutes by the addition of ethylenediaminetetraacetic acid (EDTA) to 250 mM. The phosphorylated substrate was then captured on a nitrocellulose or phosphocellulose membrane using a 96-well filtration manifold, and unincorporated radioactivity was removed by repeated washing with 0.85% phosphoric acid. Radioactivity was quantified by exposing the dried membranes to a phosphorimager.
Inhibition was measured relative to control wells that contained all reaction components including 2% (v/v) DMSO but no compound, after subtraction of background radioactivity measured in the absence of enzyme. Apparent Ki values of discrete compounds were measured by assaying enzyme activity in the presence of different inhibitor compound concentrations and subtracting the background radioactivity measured in the absence of enzyme. The kinetic parameters (kcat, Km for ATP) were measured for each enzyme under the usual assay conditions by determining the dependence of initial rates on ATP concentration. Inhibition data were fit to an equation for competitive inhibition using Kaleidagraph (Synergy Software), or were fit to an equation for competitive tight-binding inhibition using the software KineTic (BioKin, Ltd.).
A complex of human CDK4 and genetically truncated (1-264) cyclin D3 was purified using traditional biochemical chromatographic techniques from insect cells that had been co-infected with the corresponding baculovirus expression vectors (see e.g., Meijer and Kim, “Chemical Inhibitors of Cyclin-Dependent Kinases,” Methods in Enzymol., 283, 113-128 (1997)). The enzyme complex (5 nM) was assayed with 0.3-0.5 μg of purified recombinant retinoblastoma protein fragment (Rb) as a substrate. The engineered Rb fragment (residues 386-928 of the native retinoblastoma protein; 62.3 kDa) contains the majority of the phosphorylation sites found in the native 106-kDa protein, as well as a tag of six histidine residues for ease of purification. Phosphorylated Rb substrate was captured by microfiltration on a nitrocellulose membrane and quantified using a phosphorimager as described above. For measurement of tight-binding inhibitors, the assay duration was extended to 60 minutes, during which the time-dependence of product formation was linear and initial rate conditions were met.

T1 sequence (P11802 whole entry): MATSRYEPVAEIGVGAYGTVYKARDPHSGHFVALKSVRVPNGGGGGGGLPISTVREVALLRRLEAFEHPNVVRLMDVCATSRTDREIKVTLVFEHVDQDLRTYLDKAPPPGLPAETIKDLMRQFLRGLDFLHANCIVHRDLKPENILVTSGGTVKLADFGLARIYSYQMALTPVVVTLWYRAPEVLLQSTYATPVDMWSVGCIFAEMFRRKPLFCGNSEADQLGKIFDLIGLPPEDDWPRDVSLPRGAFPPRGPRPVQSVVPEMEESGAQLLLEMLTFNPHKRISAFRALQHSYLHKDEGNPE
T1 sequence (P30281 1-264 partner limits assumed): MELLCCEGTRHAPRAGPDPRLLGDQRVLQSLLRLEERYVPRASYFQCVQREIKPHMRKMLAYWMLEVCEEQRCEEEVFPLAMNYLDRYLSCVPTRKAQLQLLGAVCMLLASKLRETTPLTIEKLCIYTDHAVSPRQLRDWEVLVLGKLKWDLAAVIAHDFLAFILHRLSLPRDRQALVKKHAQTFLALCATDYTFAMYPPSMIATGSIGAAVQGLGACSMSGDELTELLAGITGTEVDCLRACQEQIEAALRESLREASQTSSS

Row | Structure (SMILES) | inhibition at 0.1 µM | inhibition at 1 µM | inhibition at 0.03 µM | % Inhib CDK4/D @ 0.1 μM | % Inhib CDK4/D @ 1 μM | % Inhib CDK4/D @ 0.03
1 | Nc1nc(Nc2ccc([S+]([O-])Cc3ncon3)cc2)sc1C(=O)c1c(Cl)cccc1Cl (stereo not drawn) [DD(88)] | 56% | 81.5% | 4.1% |  |  | 
2 | Nc1nc(Nc2ccc([S+]([O-])CC3CNC(=O)O3)cc2)sc1C(=O)c1c(Cl)cccc1Cl (stereo not drawn) [DD(89)] | 35% | 61.7% | -29% |  |  | 
3 | CN(C)CCC[S+]([O-])c1ccc(Nc2nc(N)c(C(=O)c3c(Cl)cccc3Cl)s2)cc1 (stereo not drawn) [DD(90)] | 44% | 70.2% | -4.9% |  |  | 
4 | Nc1nc(Nc2ccc([S+]([O-])CC(=O)Nc3ccccc3)cc2)sc1C(=O)c1c(Cl)cccc1Cl (stereo not drawn) [DD(95)] | 55% | 80.7% | 5.3% |  |  | 
5 | COc1cccc(C[S+]([O-])c2ccc(Nc3nc(N)c(C(=O)c4c(Cl)cccc4Cl)s3)cc2)c1 (stereo not drawn) [DD(97)] | 36% | 66.8% | -3.5% |  |  | 
6 | CC1(C[S+]([O-])c2ccc(Nc3nc(N)c(C(=O)c4c(Cl)cccc4Cl)s3)cc2)CO1 (stereo not drawn) [DD(100)] | 33% | 63.7% | 7.1% |  |  | 
7 | NC(=O)C[S+]([O-])c1ccc(Nc2nc(N)c(C(=O)c3c(Cl)cccc3Cl)s2)cc1 (stereo not drawn) [DD(101)] | 78% | 80.4% | 38% |  |  | 
8 | CCOC(=O)CC[S+]([O-])c1ccc(Nc2nc(N)c(C(=O)c3c(Cl)cccc3Cl)s2)cc1 (stereo not drawn) [DD(102)] | 42% | 46.2% | 2.1% |  |  | 
9 | CC(C)OC(=O)C[S+]([O-])c1ccc(Nc2nc(N)c(C(=O)c3c(Cl)cccc3Cl)s2)cc1 (stereo not drawn) [DD(103)] | 38% | 47.5% | -2.9% |  |  | 
10 | CC(C)=CC[S+]([O-])c1ccc(Nc2nc(N)c(C(=O)c3c(Cl)cccc3Cl)s2)cc1 (stereo not drawn) [DD(104)] | 14% | 36.4% | -38% |  |  | 
11 | COC(=O)C[S+]([O-])c1ccc(Nc2nc(N)c(C(=O)c3c(Cl)cccc3Cl)s2)cc1 (stereo not drawn) [DD(106)] | 45% | 66.8% | 1.7% |  |  | 
12 | CC(C)CCOC(=O)C[S+]([O-])c1ccc(Nc2nc(N)c(C(=O)c3c(Cl)cccc3Cl)s2)cc1 (stereo not drawn) [DD(111)] | 32% | 64.8% | -1.7% |  |  | 
13 | Nc1nc(Nc2ccc([S+]([O-])CC(O)CO)cc2)sc1C(=O)c1c(Cl)cccc1Cl (stereo not drawn) [DD(114)] | 46% | 77.9% | 16% |  |  | 
14 | Nc1nc(Nc2ccc([S+]([O-])Cc3ccncc3)cc2)sc1C(=O)c1c(Cl)cccc1Cl (stereo not drawn) [DD(115)] | 45% | 68.5% | 6.3% |  |  | 
15 | CCC(CC)C[S+]([O-])c1ccc(Nc2nc(N)c(C(=O)c3c(Cl)cccc3Cl)s2)cc1 (stereo not drawn) [DD(116)] | 15% | 26.6% | -2.9% |  |  | 
16 | CC(=O)OCC[S+]([O-])c1ccc(Nc2nc(N)c(C(=O)c3c(Cl)cccc3Cl)s2)cc1 (stereo not drawn) [DD(117)] | 52% | 61.1% | 16% |  |  | 
17 | CC(C)OC(=O)CC[S+]([O-])c1ccc(Nc2nc(N)c(C(=O)c3c(Cl)cccc3Cl)s2)cc1 (stereo not drawn) [DD(118)] | 22% | 49.9% | -0.7% |  |  | 
18 | CC(C)(CO)C[S+]([O-])c1ccc(Nc2nc(N)c(C(=O)c3c(Cl)cccc3Cl)s2)cc1 (stereo not drawn) [DD(120)] | 29% | 57.1% | -34% |  |  | 
19 | CCN(CC)C(=O)C[S+]([O-])c1cccc(Nc2nc(N)c(C(=O)c3c(Cl)cccc3Cl)s2)c1 (stereo not drawn) [DD(121)] | 41% | 59.8% | -0.5% |  |  | 
20 | Cc1noc(C)c1C[S+]([O-])c1cccc(Nc2nc(N)c(C(=O)c3c(Cl)cccc3Cl)s2)c1 (stereo not drawn) [DD(122)] | 40% | 54.3% | 16% |  |  | 
21 | CC(CN(C)C)C[S+]([O-])c1cccc(Nc2nc(N)c(C(=O)c3c(Cl)cccc3Cl)s2)c1 (stereo not drawn) [DD(123)] | 34% | 51.2% | 8% |  |  | 

Results, then the compound that gave them:

Row | inhibition at 0.1 µM | inhibition at 1 µM | inhibition at 0.03 µM | % Inhib CDK4/D @ 0.1 μM | % Inhib CDK4/D @ 1 μM | % Inhib CDK4/D @ 0.03 | Structure (SMILES)
22 | 29% | 68.2% | -16% |  |  |  | Nc1nc(Nc2ccc([S+]([O-])CCN3CCCC3)cc2)sc1C(=O)c1c(Cl)cccc1Cl (stereo not drawn) [DD(87)]
23 | 24% | 68.2% | -6.3% |  |  |  | Nc1nc(Nc2ccc([S+]([O-])CCN3CCCCC3)cc2)sc1C(=O)c1c(Cl)cccc1Cl (stereo not drawn) [DD(91)]
24 | 26% | 65.8% | -4.6% |  |  |  | Nc1nc(Nc2ccc([S+]([O-])CC3CO3)cc2)sc1C(=O)c1c(Cl)cccc1Cl (stereo not drawn) [DD(92)]
25 | 35% | 43% | -4.4% |  |  |  | CC(C)CC[S+]([O-])c1ccc(Nc2nc(N)c(C(=O)c3c(Cl)cccc3Cl)s2)cc1 (stereo not drawn) [DD(93)]
26 | 51% | 70.9% | 17% |  |  |  | COCC[S+]([O-])c1ccc(Nc2nc(N)c(C(=O)c3c(Cl)cccc3Cl)s2)cc1 (stereo not drawn) [DD(94)]
27 | 28% | 55.4% | -8.1% |  |  |  | Nc1nc(Nc2ccc([S+]([O-])CC3CC3)cc2)sc1C(=O)c1c(Cl)cccc1Cl (stereo not drawn) [DD(96)]
28 | 21% | 45.4% | -12% |  |  |  | Nc1nc(Nc2ccc([S+]([O-])CC3CCCO3)cc2)sc1C(=O)c1c(Cl)cccc1Cl (stereo not drawn) [DD(98)]
29 | 34% | 77.1% | -5.6% |  |  |  | CN1CCCC1CC[S+]([O-])c1ccc(Nc2nc(N)c(C(=O)c3c(Cl)cccc3Cl)s2)cc1 (stereo not drawn) [DD(99)]
30 | 39% | 61.9% | 0.9% |  |  |  | CCC[S+]([O-])c1ccc(Nc2nc(N)c(C(=O)c3c(Cl)cccc3Cl)s2)cc1 (stereo not drawn) [DD(105)]
31 | 28% | 47.3% | -11% |  |  |  | CN1CCCC(C[S+]([O-])c2ccc(Nc3nc(N)c(C(=O)c4c(Cl)cccc4Cl)s3)cc2)C1 (stereo not drawn) [DD(107)]
32 | 60% | 73.9% | 14% |  |  |  | NC(=O)CC[S+]([O-])c1ccc(Nc2nc(N)c(C(=O)c3c(Cl)cccc3Cl)s2)cc1 (stereo not drawn) [DD(108)]
33 |  |  |  | 67% | 73.5% | 25% | Nc1nc(Nc2ccc([S+]([O-])CCO)cc2)sc1C(=O)c1c(Cl)cccc1Cl (stereo not drawn) [DD(109)]
34 |  |  |  | 27% | 28.9% | 3.7% | Nc1nc(Nc2ccc([S+]([O-])CCO)cc2)sc1C(=O)c1c(Cl)cccc1Cl (stereo not drawn) [DD(110)]
35 | 27% | 63.2% | -4.9% |  |  |  | CN(C)CC[S+]([O-])c1ccc(Nc2nc(N)c(C(=O)c3c(Cl)cccc3Cl)s2)cc1 (stereo not drawn) [DD(112)]
36 | 30% | 59.4% | 1.1% |  |  |  | CCOCC[S+]([O-])c1ccc(Nc2nc(N)c(C(=O)c3c(Cl)cccc3Cl)s2)cc1 (stereo not drawn) [DD(113)]
37 | 36% | 58% | 3.8% |  |  |  | Nc1nc(Nc2ccc([S+]([O-])CCN3CCOCC3)cc2)sc1C(=O)c1c(Cl)cccc1Cl (stereo not drawn) [DD(119)]
